Results reported in US20230393140A1, “BINDING ASSAYS INVOLVING A PLURALITY OF SYNTHETIC COMPOUNDS, TARGETS, AND COUNTER TARGETS” (SRI International, priority 2020, published 2023).
Numbered stars: 1 amine (or outer) side, 2 acyl side, 3 side chain; on linkers, the order of the positions; unused ones are H or OH. Square brackets hold non-standard residues; d marks the D form. Peptide text beside a SMILES is read from it. * marks the point of attachment. 5FAM = O=C1OC2(c3ccc(O)cc3Oc3cc(O)ccc32)c2ccc(C(=O)*)cc21; NHCH2C6H4(4-CH2CONH2) = NC(=O)Cc1ccc(CN*)cc1; X1 = O=C(Cc1ccc(CN[*:1])cc1)[*:2]

Legend:
IL-6R = target: T1, IL-6R (Homo sapiens, UniProt P08887); experiment: MST binding affinity of resynthesized NNP hits to IL-6R; conditions: IL-6R; ester versus amide amino acid-PAM bond polymers, library NNP2
T1 construct: purchased Creative Biomart IL6R-584H
T1 sequence (P08887 20-355 limits assumed): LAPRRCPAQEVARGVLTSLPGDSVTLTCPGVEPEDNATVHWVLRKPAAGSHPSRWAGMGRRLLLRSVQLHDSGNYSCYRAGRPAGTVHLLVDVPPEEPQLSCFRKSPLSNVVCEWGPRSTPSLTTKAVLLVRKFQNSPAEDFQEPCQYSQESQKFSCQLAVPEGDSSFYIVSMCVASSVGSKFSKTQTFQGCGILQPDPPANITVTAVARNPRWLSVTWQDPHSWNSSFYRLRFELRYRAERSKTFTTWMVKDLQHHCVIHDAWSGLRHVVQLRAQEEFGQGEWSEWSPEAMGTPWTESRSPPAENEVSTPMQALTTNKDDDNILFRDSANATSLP
Experimental: Hit binding affinity to various targets were determined using Microscale Thermophoresis (MST). MST experiments were performed on a Monolith NT.115pico (NanoTemper Technologies GmbH, Munich, Germany). Measurements were performed at room temperature, in triplicate with incubation periods of 15, 30 and 45 minutes. […] Targets were labeled using Nanotemper Monolith 2nd Generation Protein Labeling Kits. RED-MALEIMIDE (Maleimide-647-dye) labeling kit was used for K-Ras and RED-NHS (NHS-647-dye) labeling kit was used for IL-6, IL-6R, TNFα and ASGPR. The buffer for the ASGPR contained 20 mM HEPES pH 7.4, 150 mM NaCl, 10 mM MgCl2, 2 mM CaCl2, 0.05% Pluronic F-127, and 1 mM DTT; for IL-6 contained 20 mM HEPES pH 7.4, 150 mM KCl, 10 mM MgCl2, and 0.1% Pluronic F-127; for the soluble IL-6 receptor 20 mM HEPES pH 7.4, 150 mM NaCl, 10 mM MgCl2, and 0.05% Tween-20; for K-Ras 20 mM HEPES pH 7.4, 150 mM NaCl, 10 mM MgCl2, 0.05% Tween-20 and 1 mM DTT; for TNFα 10 mM HEPES pH 7.4, 150 mM NaCl, 10 mM MgCl2, 0.05% Polysorbate-20. Triplicate data was analyzed using MO.AffinityAnalysis software (NanoTemper Technologies GmbH).

proteinase K = proteinase K (Parengyodontium album, UniProt P06873); experiment: Proteinase K stability assay; format: in vitro ADME; conditions: 37 degrees C; aliquots at 0, 1.5 and 16 hours; LC-MS
proteinase K, sequence (P06873 106-384, species assumed): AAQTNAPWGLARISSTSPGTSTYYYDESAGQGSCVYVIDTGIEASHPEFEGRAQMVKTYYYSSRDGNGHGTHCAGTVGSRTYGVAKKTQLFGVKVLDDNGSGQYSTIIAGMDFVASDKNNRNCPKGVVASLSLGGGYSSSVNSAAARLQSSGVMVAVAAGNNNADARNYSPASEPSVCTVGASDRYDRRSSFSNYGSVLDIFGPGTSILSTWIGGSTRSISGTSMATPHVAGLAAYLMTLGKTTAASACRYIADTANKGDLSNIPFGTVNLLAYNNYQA
Experimental: For proteinase K stability, solutions of each tested compound (200 μM) in 10% DMSO and 20 mM Tris HCl at pH 8 were prepared. Proteinase K was added to a final concentration of […] and 100 μM of the tested compound in 5% DMSO and 10 mM Tris HCl at pH 8. The solutions were incubated at 37 degrees C. and aliquots after 0 hours, 1.5 hours and 16 hours were analyzed by LC-MS.

[1] = format: in vitro ADME; conditions: 17 h
Experimental: For human plasma stability, lyophilized human plasma was reconstituted in sterile water for injection, aliquoted into 200 uL aliquots and stored frozen at −80 degrees C. prior to the stability studies. For the stability studies three aliquots per NNP were thawed at room temperature. An additional set of three aliquots for a positive control peptide (Angiotensin I) were also thawed. The incubations for the plasma stability were initiated by mixing 2 uL of a 2 mM stock solution of NNP IL6R-87-8 or positive control in DMSO with the 200 uL thawed plasma aliquot. After briefly vortex-mixing, 50 uL zero-time-point samples were removed, mixed with 50 uL of water and 400 uL of acetonitrile and frozen on dry ice until all time point samples had been collected. The samples were incubated at 37 degrees C. with samples removed and water/acetonitrile added at 1 hour, 3 hours, and 17 hours. Proteins were precipitated by centrifuging the samples at 17,000 G, 4 degrees C. for 1 hour. The supernatants were removed and concentrated in a centrifugal vacuum concentrator (GeneVac Genie II) at 45 degrees C. until the volume had been reduced to around 60 uL. […]

CC(C)C[C@H](NC(=O)[C@@H](CCCNC(=N)N)NC(=O)[C@@H](C)NC(=O)Cc1ccc(CNC(=O)[C@H](CC(C)C)NC(=O)[C@@H](CCCNC(=N)N)NC(=O)[C@@H](CCC(=O)O)NC(=O)Cc2ccc(CNC(=O)[C@H](C)NC(=O)[C@@H](CCCCN)NC(=O)[C@@H](Cc3ccc(O)cc3)NC(=O)Cc3ccc(CNC(=O)[C@H](C)NC(=O)[C@@H](CCCNC(=N)N)NC(=O)[C@@H](Cc4ccccc4)NC(=O)Cc4ccc(CNC(=O)[C@H](Cc5ccccc5)NC(=O)[C@@H](CO)NC(=O)[C@@H](CCCNC(=N)N)NC(=O)Cc5ccc(CNC(=O)[C@@H](NC(=O)[C@@H](CO)NC(=O)[C@@H](Cc6ccc(O)cc6)NC(=O)Cc6ccc(CNC(=O)[C@H](Cc7ccccc7)NC(=O)[C@H](NC(=O)[C@@H](CC(N)=O)NC(=O)c7ccc8c(c7)C(=O)OC87c8ccc(O)cc8Oc8cc(O)ccc87)C(C)C)cc6)C(C)C)cc5)cc4)cc3)cc2)cc1)C(=O)NCc1ccc(CC(=O)N2CCC[C@@H]2C(=O)N[C@H](CCCNC(=N)N)C(=O)N[C@@H](C)C(=O)NCc2ccc(CC(=O)N[C@H](Cc3ccccc3)C(=O)N[C@H](CCCCN)C(=O)NCC(=O)NCc3ccc(CC(N)=O)cc3)cc2)cc1 [IL6R-87-8, Fluorescein-(D)Asn-(D)Val-(L)Phe-PAM-(D)Tyr-(D)Ser-(L)Val-PAM-(D)Arg-(D)Ser-(L)Phe-PAM-(D)Phe-(D)Arg-(L)Ala-PAM-(D)Tyr-(D)Lys-(L)Ala-PAM-(D)Glu-(D)Arg-(L)Leu-PAM-(D)Ala-(D)Arg- (L)Leu-PAM-(D)Pro-(D)Arg-(L)Ala-PAM-(D)Phe-(D)Lys-Gly-PAM] (5FAM-[dN][dV]F[X1][dY][dS]V[X1][dR][dS]F[X1][dF][dR]A[X1][dY][dK]A[X1][dE][dR]L[X1][dA][dR]L[X1][dP][dR]A[X1][dF][dK]G-{NHCH2C6H4(4-CH2CONH2)})
Kd (IL-6R): 620 pM | Stability in the presence of proteinase K (proteinase K): minimal degradation | Stability in human plasma [1]: stayed largely intact
